In BindingDB's records for doi:10.1021/acs.jmedchem.9b02038 (China Pharmaceutical University, 2020) one finds IC50 data, which are given here for 1 molecule.

Usually IC50 stands for the concentration at which inhibition is half-maximal.

Assay [1] in a line: Inhibition of Vps34 in human MCF7-LC3 cells assessed as rapamycin-induced autophagy.
The nature of assay [2]: Inhibition of Vps34 in human MCF7-LC3 cells assessed as starvation-induced autophagy.

As to `Cc1cc(Nc2cc(Cl)nc(Oc3ccc([N+](=O)[O-])cc3)n2)n[nH]1`, the IC50 in assay [1] worked out at 40 nM; in assay [2], 90 nM.
